ChEMBL document CHEMBL1201862, “PubChem BioAssay data set” (2004)
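Growth conditions: 96-well plates. Treatment: test compound, 48 hours, 5 concentrations. Analysis: linear interpolation between bracketing concentrations; unreached endpoints set to highest concentration. GI50 marks 50% less growth.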 Activity calls are given as the source filed them. Cut-off read from the data, not from the text of the source: active = GI50 up to about 1.1 µM and inactive = higher. Peptide text beside a SMILES is read from it. * marks the point of attachment. Trt = c1ccc(C(c2ccccc2)(c2ccccc2)*)cc1; Cbz = O=C(OCc1ccccc1)*

What was measured:
Test in all cases: NCI-60 cell line screen, 48 h
SNB-19 = tested on: SNB-19
NCI-H522 = tested on: NCI-H522
IGROV-1 = tested on: IGROV-1
PC-3 = tested on: PC-3
OVCAR-3 = tested on: OVCAR-3
RPMI-8226 = tested on: RPMI-8226
OVCAR-4 = tested on: OVCAR-4
U-251 = tested on: U-251
HCT-116 = tested on: HCT-116
SK-MEL-28 = tested on: SK-MEL-28
A498 = tested on: A498
SN12C = tested on: SN12C
SK-OV-3 = tested on: SK-OV-3
MDA-N = tested on: MDA-N
786-0 = tested on: 786-0
KM12 = tested on: KM12
ACHN = tested on: ACHN
SNB-75 = tested on: SNB-75
TK-10 = tested on: TK-10
MDA-MB-231 = tested on: MDA-MB-231

SMILES	GI50 (SNB-19)	GI50 (NCI-H522)	GI50 (IGROV-1)	GI50 (PC-3)	GI50 (OVCAR-3)	GI50 (RPMI-8226)	GI50 (OVCAR-4)	GI50 (U-251)	GI50 (HCT-116)	GI50 (SK-MEL-28)	GI50 (A498)	GI50 (SN12C)	GI50 (SK-OV-3)	GI50 (MDA-N)	GI50 (786-0)	GI50 (KM12)	GI50 (ACHN)	GI50 (SNB-75)	GI50 (TK-10)	GI50 (MDA-MB-231)
CSC1=NS(=O)(=O)c2cc(C(=O)NN(C)C(=O)c3cc4c(cc3Cl)SC(SC)=NS4(=O)=O)c(Cl)cc2S1	> 10 µM (inactive)	> 10 µM (inactive)	> 10 µM (inactive)	> 10 µM (inactive)	> 10 µM (inactive)	> 10 µM (inactive)	> 10 µM (inactive)	> 10 µM (inactive)	> 10 µM (inactive)	> 10 µM (inactive)	> 10 µM (inactive)	> 10 µM (inactive)	> 10 µM (inactive)	> 10 µM (inactive)	> 10 µM (inactive)	> 10 µM (inactive)	> 10 µM (inactive)	> 10 µM (inactive)	> 10 µM (inactive)	–
COc1ccc(-c2cc(-c3ccc(Nc4ccnc5cc(C(F)(F)F)ccc45)cc3)nc(N)c2C#N)c2ccccc12	> 100 µM (inactive)	–	–	> 100 µM (inactive)	> 100 µM (inactive)	> 100 µM (inactive)	> 100 µM (inactive)	> 100 µM (inactive)	97.9 µM (inactive)	–	> 100 µM (inactive)	–	> 100 µM (inactive)	–	> 100 µM (inactive)	68.5 µM (inactive)	> 100 µM (inactive)	> 100 µM (inactive)	> 100 µM (inactive)	> 100 µM (inactive)
N=C(N)NS(=O)(=O)c1ccc(NC(=O)c2cccc3c(O)c4ccccc4nc23)cc1	59.4 µM (inactive)	> 100 µM (inactive)	81.5 µM (inactive)	> 100 µM (inactive)	> 100 µM (inactive)	> 100 µM (inactive)	> 100 µM (inactive)	48 µM (inactive)	> 100 µM (inactive)	> 100 µM (inactive)	> 76.4 µM (inactive)	> 100 µM (inactive)	58.2 µM (inactive)	–	58.1 µM (inactive)	> 100 µM (inactive)	> 100 µM (inactive)	31.8 µM (inactive)	54.8 µM (inactive)	> 100 µM (inactive)
CC(C)(C)OC(=O)NCC(O)CNC(=O)OC(C)(C)C	> 100 µM (inactive)	> 100 µM (inactive)	> 100 µM (inactive)	> 100 µM (inactive)	> 100 µM (inactive)	> 100 µM (inactive)	> 100 µM (inactive)	> 100 µM (inactive)	> 100 µM (inactive)	> 100 µM (inactive)	> 100 µM (inactive)	> 100 µM (inactive)	> 100 µM (inactive)	–	> 100 µM (inactive)	> 100 µM (inactive)	> 100 µM (inactive)	–	> 100 µM (inactive)	> 100 µM (inactive)
CC(=O)OCC1OC(n2c(=O)n(-c3ccccc3)c(=O)c3cc(Br)cc(Br)c32)C(OC(C)=O)C(OC(C)=O)C1OC(C)=O (configuration not stated)	> 100 µM (inactive)	> 100 µM (inactive)	> 100 µM (inactive)	–	> 100 µM (inactive)	> 100 µM (inactive)	7.5 µM (inactive)	71 µM (inactive)	> 100 µM (inactive)	> 100 µM (inactive)	> 100 µM (inactive)	> 100 µM (inactive)	> 100 µM (inactive)	–	> 100 µM (inactive)	> 100 µM (inactive)	> 100 µM (inactive)	74.1 µM (inactive)	> 100 µM (inactive)	–
Cc1cc(C)c2c(c1)N[S@@](=O)S2	30.8 µM (inactive)	17.4 µM (inactive)	19.4 µM (inactive)	–	18.3 µM (inactive)	34.7 µM (inactive)	23.1 µM (inactive)	16.8 µM (inactive)	17.1 µM (inactive)	28 µM (inactive)	> 100 µM (inactive)	19.4 µM (inactive)	31.4 µM (inactive)	–	15 µM (inactive)	24 µM (inactive)	23.4 µM (inactive)	32.5 µM (inactive)	30.4 µM (inactive)	–
Cc1ccccc1C1OC(=O)c2ccc3ccccc3c21 (configuration not stated)	8.87 µM (inactive)	1.82 µM (inactive)	5 µM (inactive)	–	3.65 µM (inactive)	1.61 µM (inactive)	9.51 µM (inactive)	3.57 µM (inactive)	2.52 µM (inactive)	3.43 µM (inactive)	2.36 µM (inactive)	5.47 µM (inactive)	2.52 µM (inactive)	–	4.57 µM (inactive)	5.6 µM (inactive)	4.63 µM (inactive)	3.55 µM (inactive)	7 µM (inactive)	–
CSc1ccc(N2C(=O)C3c4[nH]c5ccccc5c4C4CCC(C(C)(C)C)CC4C3C2=O)cc1 (configuration not stated)	19.1 µM (inactive)	16.2 µM (inactive)	13.8 µM (inactive)	–	41.2 µM (inactive)	28.4 µM (inactive)	10.3 µM (inactive)	16.4 µM (inactive)	5.24 µM (inactive)	13.8 µM (inactive)	17.8 µM (inactive)	16.1 µM (inactive)	16.6 µM (inactive)	–	14.9 µM (inactive)	28.4 µM (inactive)	13.9 µM (inactive)	18.5 µM (inactive)	19.5 µM (inactive)	–
Nc1nc(N)c(C2=CCNCC2)c(=O)[nH]1	> 100 µM (inactive)	> 100 µM (inactive)	> 100 µM (inactive)	> 100 µM (inactive)	> 100 µM (inactive)	> 100 µM (inactive)	> 100 µM (inactive)	> 100 µM (inactive)	> 100 µM (inactive)	> 100 µM (inactive)	> 100 µM (inactive)	> 100 µM (inactive)	> 100 µM (inactive)	–	> 100 µM (inactive)	> 100 µM (inactive)	> 100 µM (inactive)	> 100 µM (inactive)	–	> 100 µM (inactive)
C[Si](C)(C)/C(Br)=C\CCN1C(=O)CCC1O (configuration not stated)	> 100 µM (inactive)	71.9 µM (inactive)	> 100 µM (inactive)	–	> 100 µM (inactive)	> 100 µM (inactive)	> 100 µM (inactive)	> 100 µM (inactive)	> 100 µM (inactive)	> 100 µM (inactive)	> 100 µM (inactive)	> 100 µM (inactive)	> 100 µM (inactive)	–	> 100 µM (inactive)	> 100 µM (inactive)	> 100 µM (inactive)	34.2 µM (inactive)	> 100 µM (inactive)	–
CC1=NN(c2nc(N)nc(CCl)n2)CC1	> 100 µM (inactive)	1.96 µM (inactive)	7.14 µM (inactive)	36.2 µM (inactive)	13.4 µM (inactive)	38.9 µM (inactive)	16.8 µM (inactive)	29.4 µM (inactive)	24.5 µM (inactive)	22.8 µM (inactive)	42.3 µM (inactive)	32.4 µM (inactive)	36.6 µM (inactive)	–	10.1 µM (inactive)	16.4 µM (inactive)	17.3 µM (inactive)	18.6 µM (inactive)	55.5 µM (inactive)	40 µM (inactive)
COC(=O)Cc1nc2ccccc2o1	> 100 µM (inactive)	40.1 µM (inactive)	> 100 µM (inactive)	–	69 µM (inactive)	17.8 µM (inactive)	> 100 µM (inactive)	83.8 µM (inactive)	91.2 µM (inactive)	> 100 µM (inactive)	> 100 µM (inactive)	> 100 µM (inactive)	> 100 µM (inactive)	–	> 100 µM (inactive)	66.5 µM (inactive)	41.7 µM (inactive)	> 100 µM (inactive)	46.2 µM (inactive)	–
Cc1ccc(Nc2cccc3c2C(=O)c2cccc(Nc4ccc(C)cc4S(=O)(=O)O)c2C3=O)c(S(=O)(=O)O)c1	> 100 µM (inactive)	> 100 µM (inactive)	> 100 µM (inactive)	–	> 100 µM (inactive)	> 100 µM (inactive)	> 100 µM (inactive)	> 100 µM (inactive)	> 100 µM (inactive)	> 100 µM (inactive)	> 100 µM (inactive)	> 100 µM (inactive)	> 100 µM (inactive)	–	> 100 µM (inactive)	> 100 µM (inactive)	> 100 µM (inactive)	> 100 µM (inactive)	> 100 µM (inactive)	–
O=C(CC(=O)c1ccccc1)c1ccccc1.O=C(CC(=O)c1ccccc1)c1ccccc1.O=C(CC(=O)c1ccccc1)c1ccccc1.[SiH4]	4.74 µM (inactive)	2.26 µM (inactive)	5.4 µM (inactive)	–	2.42 µM (inactive)	4.03 µM (inactive)	4.63 µM (inactive)	2.86 µM (inactive)	5.02 µM (inactive)	7.76 µM (inactive)	10.6 µM (inactive)	3.95 µM (inactive)	5.79 µM (inactive)	–	7.74 µM (inactive)	3.48 µM (inactive)	3.63 µM (inactive)	10.4 µM (inactive)	5.97 µM (inactive)	–
COC(=O)C(CO)NC(=O)C(CSC(c1ccccc1)(c1ccccc1)c1ccccc1)NC(=O)OCc1ccccc1 (configuration not stated) (Cbz-Cys(Trt)-Ser-OMe; configuration not given here)	19.5 µM (inactive)	15.5 µM (inactive)	16.8 µM (inactive)	12.3 µM (inactive)	13.6 µM (inactive)	0.36 µM (active)	20.6 µM (inactive)	16.7 µM (inactive)	12.3 µM (inactive)	17 µM (inactive)	–	13.3 µM (inactive)	24.6 µM (inactive)	–	20.9 µM (inactive)	16.1 µM (inactive)	21.2 µM (inactive)	17.6 µM (inactive)	24.5 µM (inactive)	13.8 µM (inactive)
